Measured values published in patent publication US20070010582A1, “Use of N-chlorotaurine for treatment of oozing tissue deficiencies” (priority 2005, published 2007).

Legend:
[1] = Pilot study (open phase IIa) after tympanoplasty: tolerability; assay type: in vivo, human; settings: 12 patients
Experimental: (§1) After removing the ear-tamponade, which remained in place for 2 to 3 weeks postoperatively, 3 ml of the 1% aqueous NCT solution was applied once daily to the outer ear canal. The endpoint of the treatment was defined as a completely dry canal, corresponding to a clinical score of zero (see below for scoring).
The second criterion was subjective pain, ascertained by a visual analogue scale.
Before and at the end of the study an audiogram was performed in all patients.
All subjects completed the study.

[2] = system: outer ear canal; experiment: Pilot study (open phase IIa), postoperative irrigation of external auditory canal after tympanoplasty: efficacy; assay type: in vivo, human; settings: 12 patients
Experimental: Local irrigations of the external auditory canal with 3 ml of 1% N-chlorotaurine solution were performed once daily until the canal was dry.
An open phase IIa study was performed in 12 patients after tympanoplasty. They received a single-shot antibiotic therapy with 2 g Spizef (cefotiam) i.v. perioperatively.
as §1
The primary criterion for the judgement of the status of the external meatus was a six-scale clinical score (0-5) based on visual observation via ear microscopy (zero=dry outer ear canal; 5=moist outer ear canal with inflammation).
Clinical examination of the outer ear canal was performed daily for detection of moisture, signs of infection, and judgement of epithelisation of the neo-tympanon.
A completely dry external meatus (score zero) was considered as the endpoint criterion for the termination of the study.
Moisture and inflammation of the external auditory canal during and after irrigation with NCT were compared to those before treatment using the Wilcoxon test. P-values <0.05 were considered to indicate statistical significance. Due to the limited number of patients no corrections for multiple comparisons were applied.

[3] = pH of aqueous NCT solution; assay type: physicochemical; settings: no buffers
[4] = system: open leg ulcer with fibrous coating; experiment: Wound dressing soaked with NCT solution on open leg ulcer with fibrous coating (case report); assay type: in vivo, human; settings: single patient
Experimental: A human patient suffering from an open leg ulcer with fibrous coating caused by a burn accident was treated two times daily with wound dressing soaked with aqueous 1% NCT solution. […] Microbiological cultures of swabs before and after therapy were sterile.

[5] = Storage stability of aqueous NCT solution; assay type: physicochemical; settings: 1% (55 mM) aqueous solution stored at 2-4° C.
Experimental: Pure NCT as a crystalline sodium salt was dissolved in sterile distilled water to a concentration of 1% (55 mM). Purity was verified by iodometric titration and spectrophotometry. […] Solutions were stored at 2-4° C., where they are stable for 1 year, and allowed to reach room temperature before application to the patients.

[6] = system: oozing ear channel; experiment: Instillation/rinsing of the oozing ear channel with NCT solution after tympanoplasty (case reports); assay type: in vivo, human
Excerpt: Rinsing the ear channel with NCT solution provokes in general a drying of the ear channel and the tympanoplastic within 1-2 days.
A human patient with a traumatic perforation of the tympanic membrane was provided with a tympanoplasty. After removing incrustations and granulation tissue, the destroyed tympanic membrane was excised and substituted by a fascia temporalis. After taking away the tamponade, the microbiological culture of a swab from the reconstructed tympanic membrane and the ear channel was sterile. Subsequently, the oozing ear channel was treated one time daily for two days by instillation of 2 mL of aqueous 1% NCT solution. […] The complete epithelization was achieved 3 days earlier than by the conventional treatment with fuchsine.
A human patient suffering from a perforation of the tympanic membrane caused by a chronic inflammation of the middle ear received tympanoplasty. After removing incrustations and granulation tissue, the destroyed tympanic membrane was excised and substituted by a fascia temporalis. After taking away the tamponade, the microbiological culture of a swab from the reconstructed tympanic membrane and the ear channel was sterile. Subsequently, the oozing and swollen ear channel was treated one time daily for five days by instillation of 2 mL of aqueous 1% NCT solution. […] The complete epithelization was achieved 3 days earlier than by the conventional treatment with fuchsine.

[7] = single patient after tympanoplasty, 2 mL aqueous 1% NCT solution one time daily

O=S(=O)(O)CCNCl [NCT, N-chlorotaurine]
allergic reactions during the whole period of treatment ([1]; 3 ml 1% NCT once daily): no signs of allergic reactions | damage to the inner ear (audiogram before and after treatment) ([1]; 3 ml 1% NCT once daily): no signs of damage to the inner ear | dizziness or nystagmus ([1]; 3 ml 1% NCT once daily): No dizziness or nystagmus occurred | subjective pain (visual analogue scale) ([1]; 3 ml 1% NCT once daily): without occurrence of any pain | tolerability of therapy ([1]; 3 ml 1% NCT once daily to outer ear canal): tolerated very well | epithelisation of the new tympanon on ear microscopy ([2]; 3 ml 1% NCT once daily): proceeded regularly without granulation | infection in the postoperative course ([2]; 3 ml 1% NCT once daily): No infection occurred | necessary time for achieving a score of zero (range) ([2]; 3 ml 1% NCT once daily): 2 to 5 days | time needed for complete epithelisation (mean±SD) ([2]; 3 ml 1% NCT once daily): 22.6 ± 3.5 days | time needed for complete epithelisation (range) ([2]; 3 ml 1% NCT once daily): 18 to 31 days | average clinical score (0-5) ([2]; 3 ml 1% NCT once daily, days 2-5 vs day 1, Wilcoxon p=0,001-0,002): decreased daily | necessary time for achieving a score of zero (mean±SD) ([2]; 3 ml 1% NCT once daily, score zero = dry outer ear canal): 2.75 ± 0.87 days | drying of the outer ear canal ([2]; 3 ml 1% aqueous NCT once daily): Rapid drying of the outer ear canal was detected in all patients | pH of aqueous solutions [3]: 8 | treatment time after which fibrous coating disappeared ([4]; burn accident, dressing soaked with aqueous 1% NCT solution two times daily): three | microbiological cultures of swabs before and after therapy ([4]; aqueous 1% NCT solution two times daily): sterile | healing process ([4]; dressing soaked with aqueous 1% NCT solution two times daily): went on without problems | stability of solutions on storage [5]: 1 year | period of oozing subsequent to operations ([6]; e.g. otoplastic operations, general statement): reduced the period of oozing | drying of the ear channel and the tympanoplastic ([6]; rinsing the ear channel with NCT solution, general statement): 1 to 2 days | time after which oozing ceased ([6]; single patient after tympanoplasty, 2 mL aqueous 1% NCT solution instilled one time daily): three | time after which swelling ceased ([6]; single patient after tympanoplasty, 2 mL aqueous 1% NCT solution instilled one time daily for five days): two | complete epithelization achieved earlier than by conventional treatment with fuchsine [6, 7]: 3 days | incorporation of the temporal fascia [6, 7]: proceeded without problems
